Test [1] has as its target T1, human recombinant SSAO/VAP-1 (Homo sapiens, UniProt Q16853).
T1 construct: a cloned cDNA template corresponding to residues 34-763 of human SSAO/VAP-1; TEV cleavage site (N); made in house
T1 sequence (Q16853 34-763): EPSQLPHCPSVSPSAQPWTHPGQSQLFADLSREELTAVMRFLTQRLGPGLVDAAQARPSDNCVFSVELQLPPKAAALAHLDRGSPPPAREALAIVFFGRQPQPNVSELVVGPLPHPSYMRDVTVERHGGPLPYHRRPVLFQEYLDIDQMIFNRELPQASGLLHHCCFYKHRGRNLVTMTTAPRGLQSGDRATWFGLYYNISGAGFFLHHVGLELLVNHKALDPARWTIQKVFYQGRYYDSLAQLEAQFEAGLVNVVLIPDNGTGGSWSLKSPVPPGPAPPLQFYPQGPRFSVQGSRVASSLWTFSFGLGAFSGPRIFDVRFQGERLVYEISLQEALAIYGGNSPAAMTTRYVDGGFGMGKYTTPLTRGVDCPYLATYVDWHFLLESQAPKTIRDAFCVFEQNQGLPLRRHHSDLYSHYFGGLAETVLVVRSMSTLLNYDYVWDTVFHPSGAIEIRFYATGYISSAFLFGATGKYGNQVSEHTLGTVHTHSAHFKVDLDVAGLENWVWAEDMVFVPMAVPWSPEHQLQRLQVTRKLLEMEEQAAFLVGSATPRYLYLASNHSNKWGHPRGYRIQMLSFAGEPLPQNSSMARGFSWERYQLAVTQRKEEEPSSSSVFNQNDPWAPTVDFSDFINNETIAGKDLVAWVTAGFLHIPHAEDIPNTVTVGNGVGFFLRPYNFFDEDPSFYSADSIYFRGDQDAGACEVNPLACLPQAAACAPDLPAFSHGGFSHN
In words: Human recombinant SSAO/VAP-1 amine oxidase inhibition. The test is classed as biochemical. Particulars: 30 min preincubation at 37° C., 600 μM benzylamine. The method, then: Method to Determine the Ability of Compounds of Formula I to Inhibit Human Recombinant SSAO/VAP-1
Human recombinant SSAO/VAP-1 amine oxidase activity was determined using the coupled colorimetric method as described for monoamine oxidase, copper-containing amine oxidases and related enzymes (Holt A. and Palcic M., A peroxidase-coupled continuous absorbance plate-reader assay for flavin monoamine oxidases, copper-containing amine oxidases and related enzymes. Nat Protoc 2006; 1: 2498-2505). Briefly, a cloned cDNA template corresponding to residues 34-763 of human SSAO/VAP-1, and incorporating a mouse Ig kappa (κ) signal sequence, N-terminal flag epitope tag and tobacco etch virus (TEV) cleavage site, was assembled in a mammalian expression vector (pLO-CMV) by Geneart AG. This vector containing human SSAO/VAP-1 residues was transfected into CHO-K1 glycosylation mutant cell line, Lec 8. A clone stably expressing human SSAO/VAP-1 was isolated and cultured in large scale. Active human SSAO/VAP-I was purified and recovered using immunoaffinity chromatography. This was used as the source for SSAO/VAP-1 activity. A high-throughput colorimetric assay was developed using either 96 or 384 well format. Briefly, in a standard 96 well plate assay 50 μL of purified human SSAO/VAP-1 (0.25 μg/mL) in 0.1 M sodium phosphate buffer (pH 7.4) was added into each well. Test compounds were dissolved in DMSO and tested in a Concentration Response Curve (CRC) with 4-11 data points, typically in the micromolar or nanomolar range after incubation with human SSAO/VAP-1 for 30 min at 37° C. After 30 min incubation, 50 μL of the reaction mixture containing 600 μM benzylamine (Sigma Aldrich), 120 μM Amplex Red (Sigma Aldrich) and 1.5 U/mL horseradish peroxidase (Sigma Aldrich) prepared in 0.1 M sodium phosphate buffer (pH 7.4) were added to the corresponding well. The fluorescence unit (RFU) was read every 2.5 min for 30 min at 37° C. excitation 565 nm and emission 590 (Optima; BMG labtech). The slope of the kinetics for each well was calculated using MARS data analysis software (BMG labtech) and this value was used to deduce the IC50 value (Dotmatics).

In another test the target is T2, Recombinant human MAO-B (Homo sapiens, UniProt P27338).
T2 construct: purchased Sigma Aldrich
T2 sequence (P27338 1-520): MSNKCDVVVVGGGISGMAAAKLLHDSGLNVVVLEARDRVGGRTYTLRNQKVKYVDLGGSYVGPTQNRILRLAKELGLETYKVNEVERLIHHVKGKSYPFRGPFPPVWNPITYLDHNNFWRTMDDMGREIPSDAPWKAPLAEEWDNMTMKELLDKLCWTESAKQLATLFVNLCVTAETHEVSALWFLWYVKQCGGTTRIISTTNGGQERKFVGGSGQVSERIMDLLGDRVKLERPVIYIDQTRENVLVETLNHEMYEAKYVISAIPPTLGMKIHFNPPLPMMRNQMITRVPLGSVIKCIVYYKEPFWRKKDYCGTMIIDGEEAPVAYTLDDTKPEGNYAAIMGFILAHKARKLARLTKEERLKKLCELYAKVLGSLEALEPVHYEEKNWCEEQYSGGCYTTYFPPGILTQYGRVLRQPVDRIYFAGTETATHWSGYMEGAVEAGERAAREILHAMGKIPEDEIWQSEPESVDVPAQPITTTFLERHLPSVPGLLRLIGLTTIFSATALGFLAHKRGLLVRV
In words: Human recombinant MAO-B inhibition. The test is classed as biochemical. Particulars: benzylamine 100 μM. Put shortly: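 Recombinant human MAO-B (0.06 mg/mL) served as enzyme, with 100 μM benzylamine as substrate. Other conditions followed the human SSAO/VAP-1 assay.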

Structures are written as SMILES. Counter-ions that a name gives are not always drawn.

By IC50 is commonly meant the concentration that inhibits the measured activity by half. `Cc1nn(C/C(F)=C/CN)c(C(=O)N(C)C)c1Cc1ccc(S(=O)(=O)N(C)C)cc1` [Compound 29, (Z)-1-(4-amino-2-fluorobut-2-enyl)-4-(4-(N,N-dimethylsulfamoyl)benzyl)-N,N,3-trimethyl-1H-pyrazole-5-carboxamide hydrochloride]: the half-maximal inhibitory concentration (IC50) (in test [1]; on Recombinant human MAO-B) was greater than 30 µM each time.

With `Cc1nn(C/C(F)=C/CN)c(C(=O)O)c1Cc1ccc(S(=O)(=O)N(C)C)cc1` [Compound 30, (Z)-1-(4-amino-2-fluorobut-2-enyl)-4-(4-(N,N-dimethylsulfamoyl)benzyl)-3-methyl-1H-pyrazole-5-carboxylic acid hydrochloride], the IC50 (in test [1]; on Recombinant human MAO-B) was greater than 30 µM each time.

Regarding `Cc1c(Cc2ccc(S(=O)(=O)N(C)C)cc2)c(C(=O)O)nn1C/C(F)=C/CN` [Compound 31, (Z)-1-(4-amino-2-fluorobut-2-enyl)-4-(4-(N,N-dimethylsulfamoyl)benzyl)-5-methyl-1H-pyrazole-3-carboxylic acid hydrochloride], the IC50 (in test [1]; at Recombinant human MAO-B) was greater than 30 µM throughout.

`Cc1c(Cc2ccc(S(=O)(=O)N(C)C)cc2)c(C(=O)N(C)C)nn1C/C(F)=C/CN` [Compound 32, (Z)-1-(4-amino-2-fluorobut-2-enyl)-4-(4-(N,N-dimethylsulfamoyl)benzyl)-N,N,5-trimethyl-1H-pyrazole-3-carboxamide hydrochloride]: the IC50 (in test [1]; at Recombinant human MAO-B) was greater than 30 µM each time.

Source of the values: patent publication US20200069648A1, “HALOALLYLAMINE PYRAZOLE DERIVATIVE INHIBITORS OF LYSYL OXIDASES AND USES THEREOF” (Pharmaxis Ltd., priority 2017, published 2020).
